Measurements taken from patent US6069165A, “Pharmaceutical compositions containing amisulpride and their therapeutic applications” (Synthelabo, priority 1996, dated 2000).

Assay: Bioavailability of amisulpride administered by the oral route
Conditions: in vivo, conventional amisulpride, of the order of

In the case of CCN1CCCC1CNC(=O)c1cc(S(=O)(=O)CC)c(N)cc1OC (stereo not shown) [amisulpride, 4-amino-N-[(1-ethylpyrrolidin-2-yl)methyl]-5-(ethylsulphonyl)-2-methoxybenzamide], the bioavailability is reported as 35 to 45%.
